Consider 15 compounds from patent publication EP4603105A1, “PHARMACEUTICAL COMPOSITION CONTAINING CYCLIC COMPOUND HAVING SELECTIVE KRAS INHIBITORY EFFECT AGAINST HRAS AND NRAS” (CHUGAI SEIYAKU KABUSHIKI KAISHA, priority 2022, dated 2024).

Assay [1] has as its target GDP-bound NRAS wild-type protein (Homo sapiens, UniProt P01111). The experiment in a line: Binding to NRAS by surface plasmon resonance (SPR), KD and KD ratio to KRAS. The note with it: ratio of the KD value with respect to GDP-bound NRAS wild-type protein to the KD value with respect to KRAS. In a few lines:
(§1)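 Single-cycle kinetics on GDP-loaded biotin-Avi RAS captured to ~100–300 RU; 75 s ascending injections, 100 µL/min, 30°C. HBS pH 7.4 + 10 mM MgCl2/10 µM GDP/4% DMSO. 1:1 fit, KD.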
(SPR reads the build-up and loss of mass on a sensor chip optically.)

Another assay addresses HRAS wild-type protein (Homo sapiens, UniProt P01112). The experiment in a line: Binding to HRAS by surface plasmon resonance (SPR), KD and KD ratio to KRAS. The note with it: ratio of the KD value with respect to HRAS wild-type protein to the KD value with respect to KRAS. In a few lines:
as §1

The test system of assay [2] is human lung cancer strain NCI-H441. Type of assay: cell-based. In a few lines:
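Proliferation was scored by […] measured after the reagent was added to cultures kept at 37°C in 5% carbon dioxide.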

SMILES strings stand for the structures.

Usually IC50 stands for the concentration that gives 50% inhibition.

Chain of GDP-bound NRAS wild-type protein (P01111 whole entry): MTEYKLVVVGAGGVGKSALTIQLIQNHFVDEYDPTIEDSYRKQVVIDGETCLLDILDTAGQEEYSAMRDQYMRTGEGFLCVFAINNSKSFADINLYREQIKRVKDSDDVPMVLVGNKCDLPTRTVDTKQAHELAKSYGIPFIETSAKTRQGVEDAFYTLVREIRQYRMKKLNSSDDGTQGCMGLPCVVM
Chain of HRAS wild-type protein (P01112 whole entry): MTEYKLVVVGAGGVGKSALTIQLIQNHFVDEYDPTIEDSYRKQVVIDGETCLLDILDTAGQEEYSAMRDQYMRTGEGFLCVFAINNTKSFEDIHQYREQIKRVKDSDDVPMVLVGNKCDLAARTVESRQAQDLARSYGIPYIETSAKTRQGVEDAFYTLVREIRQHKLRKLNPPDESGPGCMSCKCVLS

Regarding `CC[C@H](C)[C@@H]1NC(=O)[C@H](CC(C)C)N(C)C(=O)C[C@@H](C(=O)N2CCOCC2)N(C)C(=O)[C@H](C2CCCC2)N(C)C(=O)C2(CCCC2)NC(=O)[C@@H]2CCCN2C(=O)[C@H](CCc2cc(F)c(C(F)(F)F)c(F)c2)NC(=O)CN(C)C(=O)[C@H](Cc2ccc(C(F)(F)F)cc2)N2CCCCC[C@@H](C2=O)N(C)C(=O)[C@@H]2CCN2C1=O` [PP0484], the “NRAS /KRAS” value in assay [1] is “A (a compound having 10 or more and less than 20 is denoted as A)”. Besides, on HRAS wild-type protein, the “HRAS /KRAS” value is “B (a compound having 3 or more and less than 10 is denoted as B)”. Also, the 50% inhibitory concentration (IC50) in assay [2] is 165 nM.

With `CC[C@H](C)[C@@H]1NC(=O)[C@H](CC(C)C)N(C)C(=O)C[C@@H](C(=O)N2CCOCC2)N(C)C(=O)[C@H](C2CCCC2)N(C)C(=O)C2(CCCC2)NC(=O)[C@@H]2CCCN2C(=O)[C@H](CCc2cc(F)c(C(F)(F)F)c(F)c2)NC(=O)CN(C)C(=O)[C@H](Cc2ccc(C(F)(F)F)cc2)N2CCCCC[C@@H](C2=O)N(C)C(=O)[C@@H]2CCCN2C1=O` [PP0485], the “NRAS /KRAS” value in assay [1] was “A (a compound having 10 or more and less than 20 is denoted as A)”. Also, the “HRAS /KRAS” value on HRAS wild-type protein was “B (a compound having 3 or more and less than 10 is denoted as B)”. The same compound returned an IC50 in assay [2] of 1260 nM.

Take `CC[C@H](C)[C@@H]1NC(=O)[C@H](C)N(C)C(=O)C[C@@H](C(=O)N2CCOCC2)N(C)C(=O)[C@H](C2CCCC2)N(C)C(=O)C2(CCCC2)NC(=O)[C@@H]2CCCN2C(=O)[C@H](CCc2cc(F)c(C(F)(F)F)c(F)c2)NC(=O)CN(C)C(=O)[C@H](Cc2ccc(C(F)(F)F)cc2)N2CCCCC[C@@H](C2=O)N(C)C(=O)CN(C)C1=O` [PP0487]: the “NRAS /KRAS” value in assay [1] is “B (a compound having 3 or more and less than 10 is denoted as B)”. The “HRAS /KRAS” value at HRAS wild-type protein is “B (a compound having 3 or more and less than 10 is denoted as B)”. Moreover, the concentration for half-maximal inhibition (IC50) in assay [2] stood at 260 nM.

Turning to `CC[C@H](C)[C@@H]1NC(=O)[C@H](CC)N(C)C(=O)C[C@@H](C(=O)N2CCOCC2)N(C)C(=O)[C@H](C2CCCC2)N(C)C(=O)C2(CCCC2)NC(=O)[C@@H]2CCCN2C(=O)[C@H](CCc2cc(F)c(C(F)(F)F)c(F)c2)NC(=O)CN(C)C(=O)[C@H](Cc2ccc(C(F)(F)F)cc2)N2CCCCC[C@@H](C2=O)N(C)C(=O)CN(C)C1=O` [PP0488], the “NRAS /KRAS” value in assay [1] was “A (a compound having 10 or more and less than 20 is denoted as A)”. Also, at HRAS wild-type protein, the “HRAS /KRAS” value is “B (a compound having 3 or more and less than 10 is denoted as B)”. In assay [2], this compound displayed a concentration for half-maximal inhibition (IC50) of 54.3 nM.

For the compound `CC[C@H](C)[C@@H]1NC(=O)[C@H](CC(C)C)N(C)C(=O)C[C@@H](C(=O)N2CCOCC2)N(C)C(=O)[C@H](C2CCCC2)N(C)C(=O)C2(CCCC2)NC(=O)[C@@H]2CCCN2C(=O)[C@H](CCc2cc(F)c(C(F)(F)F)c(F)c2)NC(=O)CN(C)C(=O)[C@H](Cc2ccc(C(F)(F)F)cc2)N2CCCCC[C@@H](C2=O)N(C)C(=O)CN(C)C1=O` [PP0490], the “NRAS /KRAS” value in assay [1] was “B (a compound having 3 or more and less than 10 is denoted as B)”. For the same compound, the “HRAS /KRAS” value on HRAS wild-type protein was “B (a compound having 3 or more and less than 10 is denoted as B)”. The same compound yielded an IC50 in assay [2] of 50.5 nM.

As to `CC[C@H](C)[C@@H]1NC(=O)[C@H](CC(C)C)N(C)C(=O)C[C@@H](C(=O)N2CCOCC2)N(C)C(=O)[C@H](C2CCCC2)N(C)C(=O)C2(CCCC2)NC(=O)[C@@H]2CC(F)(F)CN2C(=O)[C@H](CCc2cc(F)c(C(F)(F)F)c(F)c2)NC(=O)CN(C)C(=O)[C@H](Cc2ccc(C(F)(F)F)cc2)N2CCCCC[C@@H](C2=O)N(C)C(=O)CN(C)C1=O` [PP0491], the “NRAS /KRAS” value in assay [1] was “B (a compound having 3 or more and less than 10 is denoted as B)”. The “HRAS /KRAS” value at HRAS wild-type protein was “B (a compound having 3 or more and less than 10 is denoted as B)”. Also, the half-maximal inhibitory concentration (IC50) in assay [2] stood at 33.1 nM.

`CCO[C@@H]1C[C@H]2C(=O)NC3(CCCC3)C(=O)N(C)[C@@H](C3CCCC3)C(=O)N(C)[C@H](C(=O)N3CCOCC3)CC(=O)N(C)[C@@H](CC(C)C)C(=O)N[C@@H]([C@@H](C)CC)C(=O)N(C)CC(=O)N(C)[C@H]3CCCCCN(C3=O)[C@@H](Cc3ccc(C(F)(F)F)cc3)C(=O)N(C)CC(=O)N[C@@H](CCc3cc(F)c(C(F)(F)F)c(F)c3)C(=O)N2C1` [PP0492]: the “NRAS /KRAS” value in assay [1] was “B (a compound having 3 or more and less than 10 is denoted as B)”. Moreover, the “HRAS /KRAS” value at HRAS wild-type protein is “B (a compound having 3 or more and less than 10 is denoted as B)”. This compound came in with an IC50 in assay [2] of 31.9 nM.

`CC[C@H](C)[C@@H]1NC(=O)[C@H](CC(C)C)N(C)C(=O)C[C@@H](C(=O)N2CCOCC2)N(C)C(=O)[C@H](C2CCCC2)N(C)C(=O)C2(CCCC2)NC(=O)[C@@H]2CC(=O)CN2C(=O)[C@H](CCc2cc(F)c(C(F)(F)F)c(F)c2)NC(=O)CN(C)C(=O)[C@H](Cc2ccc(C(F)(F)F)cc2)N2CCCCC[C@@H](C2=O)N(C)C(=O)CN(C)C1=O` [PP0493]: the “NRAS /KRAS” value in assay [1] was “B (a compound having 3 or more and less than 10 is denoted as B)”. For the same compound, the “HRAS /KRAS” value at HRAS wild-type protein was “B (a compound having 3 or more and less than 10 is denoted as B)”. The compound also came in with a half-maximal inhibitory concentration (IC50) in assay [2] of 628 nM.

On to `CC[C@H](C)[C@@H]1NC(=O)[C@H](CC(C)C)N(C)C(=O)C[C@@H](C(=O)N2CCOCC2)N(C)C(=O)[C@H](C2CCCC2)N(C)C(=O)C2(CCCC2)NC(=O)[C@@H]2C[C@H](OC)CN2C(=O)[C@H](CCc2cc(F)c(C(F)(F)F)c(F)c2)NC(=O)CN(C)C(=O)[C@H](Cc2ccc(C(F)(F)F)cc2)N2CCCCC[C@@H](C2=O)N(C)C(=O)CN(C)C1=O` [PP0495], for which the “NRAS /KRAS” value in assay [1] is “A (a compound having 10 or more and less than 20 is denoted as A)”. The “HRAS /KRAS” value on HRAS wild-type protein is “B (a compound having 3 or more and less than 10 is denoted as B)”. Besides, in assay [2], 837 nM corresponded to half-maximal inhibition (IC50).

Take `CC[C@H](C)[C@@H]1NC(=O)[C@H](CC(C)C)N(C)C(=O)C[C@@H](C(=O)N2CCOCC2)N(C)C(=O)[C@H](C2CCCC2)N(C)C(=O)C2(CC2)NC(=O)[C@@H]2CCCN2C(=O)[C@H](CCc2cc(F)c(C(F)(F)F)c(F)c2)NC(=O)CN(C)C(=O)[C@H](Cc2ccc(C(F)(F)F)cc2)N2CCCCC[C@@H](C2=O)N(C)C(=O)CN(C)C1=O` [PP0496]: in assay [1], the “NRAS /KRAS” value is “B (a compound having 3 or more and less than 10 is denoted as B)”. Besides, on HRAS wild-type protein, the “HRAS /KRAS” value is “B (a compound having 3 or more and less than 10 is denoted as B)”. In assay [2], this compound had an IC50 of 399 nM.

In the case of `CC[C@H](C)[C@@H]1NC(=O)[C@H](CC(C)C)N(C)C(=O)C[C@@H](C(=O)N2CCOCC2)N(C)C(=O)[C@H](C2CCCC2)N(C)C(=O)C2(CCC2)NC(=O)[C@@H]2CCCN2C(=O)[C@H](CCc2cc(F)c(C(F)(F)F)c(F)c2)NC(=O)CN(C)C(=O)[C@H](Cc2ccc(C(F)(F)F)cc2)N2CCCCC[C@@H](C2=O)N(C)C(=O)CN(C)C1=O` [PP0497], in assay [1], the “NRAS /KRAS” value is “B (a compound having 3 or more and less than 10 is denoted as B)”. Also, the “HRAS /KRAS” value at HRAS wild-type protein is “B (a compound having 3 or more and less than 10 is denoted as B)”. This compound also displayed an IC50 in assay [2] of 44.2 nM.

As to `CC[C@H](C)[C@@H]1NC(=O)[C@H](CC(C)C)N(C)C(=O)C[C@@H](C(=O)N2CCOCC2)N(C)C(=O)[C@H](C2CCCC2)N(C)C(=O)C2(CCCCC2)NC(=O)[C@@H]2CCCN2C(=O)[C@H](CCc2cc(F)c(C(F)(F)F)c(F)c2)NC(=O)CN(C)C(=O)[C@H](Cc2ccc(C(F)(F)F)cc2)N2CCCCC[C@@H](C2=O)N(C)C(=O)CN(C)C1=O` [PP0498], the “NRAS /KRAS” value in assay [1] is “B (a compound having 3 or more and less than 10 is denoted as B)”. Further, at HRAS wild-type protein, the “HRAS /KRAS” value is “B (a compound having 3 or more and less than 10 is denoted as B)”. In addition, inhibition in assay [2] was half-maximal at 147 nM (IC50).

Regarding `CC[C@H](C)[C@@H]1NC(=O)[C@H](CC(C)C)N(C)C(=O)C[C@@H](C(=O)N2CCOCC2)N(C)C(=O)[C@H](C2CCCC2)N(C)C(=O)C2(CC(F)(F)C2)NC(=O)[C@@H]2CCCN2C(=O)[C@H](CCc2cc(F)c(C(F)(F)F)c(F)c2)NC(=O)CN(C)C(=O)[C@H](Cc2ccc(C(F)(F)F)cc2)N2CCCCC[C@@H](C2=O)N(C)C(=O)CN(C)C1=O` [PP0499], the “NRAS /KRAS” value in assay [1] is “B (a compound having 3 or more and less than 10 is denoted as B)”. Besides, the “HRAS /KRAS” value on HRAS wild-type protein was “B (a compound having 3 or more and less than 10 is denoted as B)”. The compound also displayed a concentration for half-maximal inhibition (IC50) in assay [2] of 44.9 nM.

Consider `CC[C@H](C)[C@@H]1NC(=O)[C@H](CC(C)C)N(C)C(=O)C[C@@H](C(=O)N2CCOCC2)N(C)C(=O)[C@H](C2CCCC2)N(C)C(=O)C2(CCOCC2)NC(=O)[C@@H]2CCCN2C(=O)[C@H](CCc2cc(F)c(C(F)(F)F)c(F)c2)NC(=O)CN(C)C(=O)[C@H](Cc2ccc(C(F)(F)F)cc2)N2CCCCC[C@@H](C2=O)N(C)C(=O)CN(C)C1=O` [PP0502], for which the “NRAS /KRAS” value in assay [1] was “A (a compound having 10 or more and less than 20 is denoted as A)”. Moreover, at HRAS wild-type protein, the “HRAS /KRAS” value is “B (a compound having 3 or more and less than 10 is denoted as B)”. This compound also returned an IC50 in assay [2] of 1820 nM.

For `CC[C@H](C)[C@@H]1NC(=O)[C@H](CC(C)C)N(C)C(=O)C[C@@H](C(=O)N2CCOCC2)N(C)C(=O)[C@H](C2CCCC2)N(C)C(=O)C(C)(C)NC(=O)[C@@H]2CCCN2C(=O)[C@H](CCc2cc(F)c(C(F)(F)F)c(F)c2)NC(=O)CN(C)C(=O)[C@H](Cc2ccc(C(F)(F)F)cc2)N2CCCCC[C@@H](C2=O)N(C)C(=O)CN(C)C1=O` [PP0503], the “NRAS /KRAS” value in assay [1] was “A (a compound having 10 or more and less than 20 is denoted as A)”. Besides, on HRAS wild-type protein, the “HRAS /KRAS” value is “B (a compound having 3 or more and less than 10 is denoted as B)”. For the same compound, in assay [2], it took 283 nM to reach half-maximal inhibition (IC50).
